Drawing on ChEMBL document CHEMBL5726111, “Substituted pyridinone compounds as MEK inhibitors” (2017), this text covers IC50 for 1 molecule.

What is called IC50 is the point on the concentration scale where inhibition reaches its midpoint.

This test deals with Dual specificity mitogen-activated protein kinase kinase 1 (Homo sapiens, UniProt Q02750). Kind of test: LANCE Ultra Assay: The LANCE Ultra assay kit was purchased from PerkinElmer. The ULight-MBP peptide, Europium labeled Antibody and LANCE Detection buffer were purchased from PerkinElmer. The APT and dimethylsulfoxide were purchased from Sigma-Aldrich. The 5× Kinase buffer were purchased from Invitrogen. […] A Mek1 kinase assay (LANCE, PerkinElmer) was developed for supporting compound profiling and lead optimization. […] Then the phosphorylated Erk1 was able to phosphorylate ULight-MBP peptide (PerkinElmer). The phosphorylated peptide was detected by Europium-anti-phospho-MBP (PerkinElmer). […] After quenching the reaction with […], 2 nM Europium-anti-phospho-MBP was added to the reaction mixture and incubated for 60 min, followed by a detection using EnVision Multilabel Plate Reader (PerkinElmer). On the technique in general: TR-FRET usually uses a lanthanide donor and a delayed reading to cut background.
Chain of Dual specificity mitogen-activated protein kinase kinase 1 (Q02750 whole entry): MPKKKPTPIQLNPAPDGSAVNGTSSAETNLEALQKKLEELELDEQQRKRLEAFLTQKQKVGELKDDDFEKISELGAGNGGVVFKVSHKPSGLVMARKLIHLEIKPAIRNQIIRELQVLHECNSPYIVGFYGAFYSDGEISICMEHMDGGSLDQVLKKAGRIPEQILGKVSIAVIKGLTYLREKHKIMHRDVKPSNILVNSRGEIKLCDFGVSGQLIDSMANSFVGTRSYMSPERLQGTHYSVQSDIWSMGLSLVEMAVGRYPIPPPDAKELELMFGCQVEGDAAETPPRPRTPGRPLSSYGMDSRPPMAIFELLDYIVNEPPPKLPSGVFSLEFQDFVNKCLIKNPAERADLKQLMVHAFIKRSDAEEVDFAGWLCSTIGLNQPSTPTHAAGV

Turning to `Cn1c(Nc2ccc(I)cc2F)c(C(=O)NOCCO)c2c(c1=O)CC(C)(C)C2`, the IC50 was less than 500 nM.
